This note sets out measurements from PubChem BioAssay (NCI).

SMILES strings stand for the structures.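 Five concentrations, 48 hours, 96-well plates. Abbreviation: GI50, concentration required for 50% inhibition of growth. The concentration for full growth arrest is given as TGI.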 Some results are limits rather than exact numbers.

Test systems include SW-620 colon; UO-31 renal; HCT-15 colon; LOX IMVI melanoma; KM12 colon; OVCAR-8 ovarian; MDA-MB-231 breast; IGROV1 ovarian; MDA-MB-435; NCI-H226 lung.
Common to all, as to assay: DTP human tumour cell line panel, 48 h

As to `CCOC(=O)c1c(C)n2c(=O)cc(C)c3c(OC(C)=O)c(OC(C)=O)cc1c32`, the GI50 (usually the concentration giving 50% growth inhibition) with SW-620 colon was 4.03 µM; in the test on UO-31 renal, 4.6 µM; in the test on HCT-15 colon it was 3.37 µM; in the test with LOX IMVI melanoma it was 4.52 µM; in the test on KM12 colon it was 5.54 µM; in the test with OVCAR-8 ovarian, 3.91 µM. Moreover, the GI50 in the test on MDA-MB-231 breast was 4.34 µM; in the test on IGROV1 ovarian it was 4.78 µM; in the test with MDA-MB-435, 5.76 µM; with NCI-H226 lung it was 10.1 µM. Moreover, the TGI – broadly, the concentration at which net growth stops – in the test with SW-620 colon is 19.3 µM; in the test with UO-31 renal, over 35.8 µM; with HCT-15 colon, 17.2 µM; in the test with LOX IMVI melanoma, 22.9 µM; in the test with KM12 colon, 29.4 µM; in the test on OVCAR-8 ovarian, over 61.2 µM. In addition, the TGI in the test on MDA-MB-231 breast was 34.4 µM; in the test on IGROV1 ovarian, 41.9 µM; in the test with MDA-MB-435 it was over 53 µM; with NCI-H226 lung, 35.7 µM.
Take `CC(=O)OC[C@]12CC[C@@H]([C@@H](C)C(N)=O)[C@@H]1[C@H]1CC[C@@H]3[C@@]4(C)CC[C@H](OC(C)=O)C(C)(C)[C@@H]4CC[C@@]3(C)[C@]1(C)CC2`: the GI50 in the test with SW-620 colon was 7.69 µM; in the test with UO-31 renal, 7.57 µM; with HCT-15 colon, 4.04 µM; in the test with LOX IMVI melanoma, 10.2 µM; with KM12 colon, 3.86 µM; in the test with OVCAR-8 ovarian, 5.44 µM. Besides, the GI50 in the test with MDA-MB-231 breast was 11.8 µM; with IGROV1 ovarian, 13.2 µM; in the test with MDA-MB-435 it was 5.23 µM; in the test on NCI-H226 lung, 7.28 µM. Further, the concentration for total growth inhibition (TGI) in the test on SW-620 colon is 24.2 µM; in the test on UO-31 renal, 21.1 µM; with HCT-15 colon, 15.3 µM; in the test on LOX IMVI melanoma, 24.4 µM; in the test on KM12 colon it was 15.8 µM; in the test on OVCAR-8 ovarian it was 25.2 µM. The TGI is 30.8 µM in the test with MDA-MB-231 breast, 30 µM with IGROV1 ovarian, 22.3 µM in the test with MDA-MB-435 and 23.9 µM in the test with NCI-H226 lung.
With `COc1ccc(C2=C(c3cc(OC)c(OC)c(OC)c3)C(=O)CC2)cc1`, the GI50 with SW-620 colon is 0.082 µM; in the test on UO-31 renal, 3.75 µM; in the test with HCT-15 colon, 0.147 µM; with LOX IMVI melanoma, 0.441 µM; in the test on KM12 colon it was 0.0719 µM; in the test on OVCAR-8 ovarian, 0.392 µM. The GI50 was 0.62 µM with MDA-MB-231 breast, 0.58 µM in the test on IGROV1 ovarian, 0.0291 µM in the test with MDA-MB-435 and 0.425 µM in the test with NCI-H226 lung. Further, the TGI in the test with SW-620 colon, in the test with UO-31 renal, in the test on HCT-15 colon, in the test with LOX IMVI melanoma, with OVCAR-8 ovarian and in the test with MDA-MB-231 breast was over 100 µM each time. The TGI is over 100 µM with IGROV1 ovarian, 0.12 µM in the test with MDA-MB-435 and over 22.6 µM with NCI-H226 lung.
As to `COc1ccc(/C=C/c2cc(N3CCOCC3)c3cc(F)c(F)cc3n2)cc1OC`, the GI50 in the test with SW-620 colon is 0.667 µM; in the test on UO-31 renal, 0.347 µM; in the test with HCT-15 colon, 0.392 µM; in the test with LOX IMVI melanoma, 0.516 µM; in the test on KM12 colon it was 1.24 µM; with OVCAR-8 ovarian, 0.55 µM. Further, the GI50 in the test on MDA-MB-231 breast was 0.483 µM; in the test with IGROV1 ovarian, 0.968 µM; with MDA-MB-435, 1.54 µM; with NCI-H226 lung, 1.1 µM. In addition, the concentration for total growth inhibition (TGI) in the test on SW-620 colon turned out to be 11.6 µM; with UO-31 renal, 10.3 µM; in the test on HCT-15 colon, 12 µM; with LOX IMVI melanoma, 2.27 µM; in the test with KM12 colon it was 13.7 µM; in the test on OVCAR-8 ovarian, 3.23 µM. In addition, the TGI amounted to 4.66 µM in the test on MDA-MB-231 breast, 9.67 µM in the test on IGROV1 ovarian, 12.8 µM in the test with MDA-MB-435 and 4.82 µM with NCI-H226 lung.
Turning to `CCCN(CCC)CCCNC(=O)c1cc2c(-c3ccc(OC)c(OC)c3)nn(C)c2s1`, the GI50 with SW-620 colon was 24.5 µM; with UO-31 renal it was 13.6 µM; in the test on HCT-15 colon, 25 µM; in the test on LOX IMVI melanoma, 15.1 µM; with KM12 colon, 26 µM; in the test on OVCAR-8 ovarian it was 36.9 µM. The GI50 in the test with MDA-MB-231 breast is 18.8 µM; in the test with IGROV1 ovarian, 43.3 µM; with MDA-MB-435 it was 14.1 µM; in the test on NCI-H226 lung, over 100 µM. Besides, the TGI in the test with SW-620 colon is 82.6 µM; in the test on UO-31 renal, 47 µM; in the test with HCT-15 colon, over 100 µM; in the test on LOX IMVI melanoma, 31 µM; in the test on KM12 colon, over 100 µM; with OVCAR-8 ovarian it was over 100 µM. Besides, the TGI in the test with MDA-MB-231 breast was 41.3 µM; with IGROV1 ovarian, over 100 µM; in the test on MDA-MB-435, 31.8 µM; with NCI-H226 lung, over 100 µM.
As for `OC(COc1cccc2ccccc12)CN1CCN(c2ccccc2)CC1` (centres undefined), the GI50 in the test on SW-620 colon was 15.2 µM; in the test with UO-31 renal, 5.94 µM; with HCT-15 colon it was 18.8 µM; with LOX IMVI melanoma it was 15.8 µM; with KM12 colon it was 16.1 µM; in the test on OVCAR-8 ovarian, 17.3 µM. In addition, the GI50 in the test with MDA-MB-231 breast was 15.8 µM; in the test with IGROV1 ovarian, 14.6 µM; in the test on MDA-MB-435 it was 15.5 µM; in the test on NCI-H226 lung, 14.7 µM. Besides, the TGI is 30.1 µM in the test with SW-620 colon; 20.4 µM with UO-31 renal; 35.7 µM in the test with HCT-15 colon; 31.1 µM with LOX IMVI melanoma; 31 µM with KM12 colon; 32.1 µM in the test on OVCAR-8 ovarian. The TGI came out at 31.8 µM with MDA-MB-231 breast, 29.5 µM in the test on IGROV1 ovarian, 30.5 µM in the test on MDA-MB-435 and 29.7 µM in the test on NCI-H226 lung.
In the case of `COC(=O)Nc1nc2cc3c(cc2s1)OCCO3`, the GI50 in the test with SW-620 colon, in the test with UO-31 renal, in the test with HCT-15 colon, in the test with LOX IMVI melanoma, with KM12 colon and with OVCAR-8 ovarian was over 50 µM in each case. For the same molecule, the GI50 with MDA-MB-231 breast, with IGROV1 ovarian, in the test on MDA-MB-435 and with NCI-H226 lung was over 50 µM throughout. In addition, the TGI in the test with SW-620 colon, in the test with UO-31 renal, in the test on HCT-15 colon, in the test on LOX IMVI melanoma, in the test on KM12 colon and in the test on OVCAR-8 ovarian was over 50 µM in each case. Also, the TGI with MDA-MB-231 breast, in the test with IGROV1 ovarian, in the test on MDA-MB-435 and in the test on NCI-H226 lung was over 50 µM each time.
